The values that follow come from PMC9098912, “Molecular basis for inhibiting human glucose transporters by exofacial inhibitors” (Nature Communications, 2022).

One data set has as its target T1, human GLUT3(N43T) (Homo sapiens, UniProt P11169, N43T).
T1 construct: His10 (N); made in house; host or cells: Sf9 insect cells (baculovirus)
T1 sequence (P11169 1-496 N43T): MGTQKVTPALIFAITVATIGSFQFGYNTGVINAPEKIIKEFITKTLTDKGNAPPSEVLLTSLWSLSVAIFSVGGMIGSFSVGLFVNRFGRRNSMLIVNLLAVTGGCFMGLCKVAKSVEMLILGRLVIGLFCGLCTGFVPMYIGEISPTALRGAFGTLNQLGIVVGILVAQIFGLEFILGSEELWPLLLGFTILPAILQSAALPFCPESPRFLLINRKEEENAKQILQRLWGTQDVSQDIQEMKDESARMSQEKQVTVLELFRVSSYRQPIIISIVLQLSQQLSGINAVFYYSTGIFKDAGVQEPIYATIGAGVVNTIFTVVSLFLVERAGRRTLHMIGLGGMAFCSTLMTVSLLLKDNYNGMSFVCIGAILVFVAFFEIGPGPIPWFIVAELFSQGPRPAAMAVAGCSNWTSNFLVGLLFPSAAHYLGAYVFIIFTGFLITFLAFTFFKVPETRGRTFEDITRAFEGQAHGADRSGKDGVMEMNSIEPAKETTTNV
In words: Proteoliposome-based counterflow assay, inhibition of D-[2-3H]-glucose transport. Format: biochemical. As for the experimental part:
(§1) All mutants were generated by standard PCR-based strategy.
(§2) All counterflow assays were performed at 25 °C. […] Liposome without protein was used as negative control.
(§3) All experiments were repeated at least three times.

For data set [1], the target named is T2, human glucose transporter GLUT1(N45T) (Homo sapiens, UniProt P11166, N45T).
T2 construct: made in house
T2 sequence (P11166 1-492 N45T): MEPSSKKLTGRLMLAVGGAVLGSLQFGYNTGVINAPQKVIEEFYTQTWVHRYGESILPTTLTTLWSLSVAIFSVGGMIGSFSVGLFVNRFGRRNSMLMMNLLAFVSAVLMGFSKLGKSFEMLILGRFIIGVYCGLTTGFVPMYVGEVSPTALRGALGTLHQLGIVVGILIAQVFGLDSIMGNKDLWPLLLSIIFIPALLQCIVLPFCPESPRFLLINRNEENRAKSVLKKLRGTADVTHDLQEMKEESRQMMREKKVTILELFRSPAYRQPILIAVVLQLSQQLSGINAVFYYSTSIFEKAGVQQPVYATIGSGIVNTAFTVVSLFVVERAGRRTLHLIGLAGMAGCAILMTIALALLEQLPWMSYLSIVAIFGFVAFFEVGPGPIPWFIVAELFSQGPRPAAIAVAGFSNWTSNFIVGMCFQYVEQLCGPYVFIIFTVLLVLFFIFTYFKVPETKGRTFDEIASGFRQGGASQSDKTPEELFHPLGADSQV
The description is as above. Format: biochemical. The settings on record: GLUT1. As to the method: as §1, §2, §3

A further data set deals with T3, GLUT1 (Homo sapiens, UniProt P11166, N45T).
T3 construct: made in house
T3 sequence (P11166 1-492 N45T): T2 sequence (P11166 1-492 N45T)
In words: Microscale thermophoresis (MST) binding assay. As to conditions: for Figure 2c: MST binding curve, Mean: log[SA47]. As to the method: as §1
(§4) Inhibitors with serial dilutions were mixed with indicated protein. […] MST analyses were conducted on a Monolith NT. […] The MST data was analyzed by Monolith NT.115.
Background: Microscale thermophoresis detects binding through changes in fluorescence in a small temperature gradient.

For a further data set, the target named is T4, GLUT3 S71A (Homo sapiens, UniProt P11169, N43T/S71A).
T4 construct: His10 (N); made in house; host or cells: Sf9 insect cells (baculovirus)
In words: biochemical. The data set is classed as binding. As to the method: as §1, §4

Another data set has as its target T5, GLUT3 N32A (Homo sapiens, UniProt P11169, N32A/N43T).
T5 construct: His10 (N); made in house; host or cells: Sf9 insect cells (baculovirus)
T5 sequence (P11169 1-496 N32A/N43T): T1 sequence (P11169 1-496 N43T) with N32A
In words: MST binding assay, GLUT3 variant. The settings on record: read-out: Kd of SA47. As for the experimental part:
as §1, §4

The target of another data set is T6, GLUT3 T28A (Homo sapiens, UniProt P11169, N43T/T28A).
T6 construct: His10 (N); made in house; host or cells: Sf9 insect cells (baculovirus)
T6 sequence (P11169 1-496 T28A/N43T): T1 sequence (P11169 1-496 N43T) with T28A
As to the kind of experiment: Binding of SA47 to GLUT3 variant. As to conditions: single point mutation T28A.

A short description of the next data set: Water solubility. Format: physicochemical. As to conditions: can only be applied up to 160 μM.

Numbering of substitutions follows the chain as printed. Entries after “also recorded” stand apart in the source; their conditions may differ.

T4 sequence (P11169 whole entry N43T/S71A): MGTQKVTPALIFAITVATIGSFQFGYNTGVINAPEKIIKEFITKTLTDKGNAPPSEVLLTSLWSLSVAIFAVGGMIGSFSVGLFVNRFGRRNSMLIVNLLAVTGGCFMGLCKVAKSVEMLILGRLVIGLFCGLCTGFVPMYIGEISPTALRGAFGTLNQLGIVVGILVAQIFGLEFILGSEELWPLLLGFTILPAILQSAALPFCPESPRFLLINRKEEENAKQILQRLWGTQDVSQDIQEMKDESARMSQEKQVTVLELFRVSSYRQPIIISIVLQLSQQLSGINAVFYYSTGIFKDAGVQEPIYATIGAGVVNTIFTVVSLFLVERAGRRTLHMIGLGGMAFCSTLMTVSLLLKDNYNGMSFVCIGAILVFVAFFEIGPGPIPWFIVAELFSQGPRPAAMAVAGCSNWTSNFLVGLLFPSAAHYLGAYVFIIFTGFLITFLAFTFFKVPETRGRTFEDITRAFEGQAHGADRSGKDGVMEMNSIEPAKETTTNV

Consider `COC(=O)CCNCc1ccccc1-n1ncc2c(N3CCN(c4cc(F)ccc4OC)CC3)ncnc21` [SA47], for which the figures for the IC50 (against human GLUT3(N43T); in data set [1]) were 0.823 ± 0.138 µM and 0.331 ± 0.0383 µM, respectively. For the same molecule, the inhibition at 160 µM (at human GLUT3(N43T) (SA47 at 160 μM); in data set [1] (SA47 at 160 μM)) was roughly 85% throughout. The figures for the Kd on GLUT1, on GLUT3 S71A and on GLUT3 N32A were 0.31 ± 0.0582 µM, 1.6 ± 0.4 µM and 0.941 ± 0.213 µM, respectively. Also, the “Figure 2c: MST binding curve, Mean” value at GLUT1 (M -4.90309) was 102.821; at GLUT1 (M -5.20412), 94.0406; at GLUT1 (M -5.50515), 85.0371; on GLUT1 (M -5.80618), 78.9623; on GLUT1 (M -6.10721), 63.517; at GLUT1 (M -6.40824), 44.2639. Besides, the “Figure 2c: MST binding curve, Mean” value on GLUT1 (M -6.70927) was 30.0958; on GLUT1 (M -7.0103), 11.0052; at GLUT1 (M -7.31133), 3.8567; on GLUT1 (M -7.61236), 3.527; at GLUT1 (M -7.91339), -1.6488; on GLUT1 (M -8.21442), -3.8284. In addition, the “Figure 2c: MST binding curve, Mean” value on GLUT1 (M -8.51545) is given as 7.0621; on GLUT1 (M -8.81648) it was 2.3819. The “Affinity of SA47 with GLUT3 S71A” value at GLUT3 S71A (S71A versus WT) is on record as “decreased the affinity; also recorded: reduced affinity”. The “SA47 binding to GLUT3 T28A” value at GLUT3 T28A is recorded as “abolished the binding”. The “Water solubility” value in the data set “Water solubility” is given as “limited”.
